Results reported in US20260256923A1, “NEW RECRUITMENT ELEMENT OF UBIQUITIN LIGASE AND USE THEREOF” (SHENZHEN LINGGENE BIOTECH CO., LTD., priority 2023, published 2026).

Key:
MDM2 [1] = target: T1, MDM2 (Homo sapiens, UniProt P19338+Q00987); assay: MDM2 protein degradation in A549 non-small cell lung cancer cells, western blot; assay type: cell-based
T1 construct: endogenous in cells; host or cells: A549
Protocol: (1) A549 non-small cell lung cancer cells were incubated with 200 nM AS1411-VH032, and corresponding cell samples were collected at time gradients of 0 h, 3 h, 6 h, 9 h, 12 h, and 24 h for protein extraction and subsequent western blot assay to detect protein degradation.
(2) A549 non-small cell lung cancer cells were incubated with AS1411-VH032 at concentrations of 0 nM, 50 nM, 100 nM, 150 nM, 200 nM, and 250 nM. After 3 h, cell samples were collected for protein extraction and subsequent western blot assay to detect protein degradation.
(3) A549 non-small cell lung cancer cells were incubated with 200 nM AS1411, VH032, AS1411-VH032, or AS1411+VH032. After 3 h, cell samples were collected for protein extraction and subsequent western blot assay to detect protein degradation.
(4) A549 non-small cell lung cancer cells were incubated with 200 nM AS1411-VH032 for 3 h, and proteasome inhibitor MG132 was added. Cell samples were collected for protein extraction and subsequent western blot assay.
(5) A549 non-small cell lung cancer cells were transfected with si-NC or si-NCL and subsequently incubated with 200 nM AS1411-VH032 for 3 h. Cell samples were collected for protein extraction and subsequent western blot assay.
(1) A549 non-small cell lung cancer cells were incubated with 1000 nM AS1411-AS1411, and corresponding cell samples were collected at time gradients of 0 h, 3 h, 6 h, 9 h, 12 h, and 24 h for protein extraction and subsequent western blot assay to detect protein degradation.
(2) A549 non-small cell lung cancer cells were incubated with AS1411-AS1411 at concentrations of 0 nM, 50 nM, 100 nM, 250 nM, 500 nM, and 1000 nM. After 12 h, cell samples were collected for protein extraction and subsequent western blot assay to detect protein degradation.
(3) A549 non-small cell lung cancer cells were incubated with 1000 nM AS1411, AS1411-AS1411, or AS1411+AS1411. After 12 h, cell samples were collected for protein extraction and subsequent western blot assay to detect protein degradation. […]

[2] = phase I and phase II clinical trials; cited from earlier work
STAT3 = STAT3 (Homo sapiens, UniProt P40763); assay: STAT3 protein degradation in HOS osteosarcoma cells, western blot; assay type: cell-based; parameters: endogenous in cells; details: 500 nM, 6 h
Sequence of STAT3 (P40763 whole entry): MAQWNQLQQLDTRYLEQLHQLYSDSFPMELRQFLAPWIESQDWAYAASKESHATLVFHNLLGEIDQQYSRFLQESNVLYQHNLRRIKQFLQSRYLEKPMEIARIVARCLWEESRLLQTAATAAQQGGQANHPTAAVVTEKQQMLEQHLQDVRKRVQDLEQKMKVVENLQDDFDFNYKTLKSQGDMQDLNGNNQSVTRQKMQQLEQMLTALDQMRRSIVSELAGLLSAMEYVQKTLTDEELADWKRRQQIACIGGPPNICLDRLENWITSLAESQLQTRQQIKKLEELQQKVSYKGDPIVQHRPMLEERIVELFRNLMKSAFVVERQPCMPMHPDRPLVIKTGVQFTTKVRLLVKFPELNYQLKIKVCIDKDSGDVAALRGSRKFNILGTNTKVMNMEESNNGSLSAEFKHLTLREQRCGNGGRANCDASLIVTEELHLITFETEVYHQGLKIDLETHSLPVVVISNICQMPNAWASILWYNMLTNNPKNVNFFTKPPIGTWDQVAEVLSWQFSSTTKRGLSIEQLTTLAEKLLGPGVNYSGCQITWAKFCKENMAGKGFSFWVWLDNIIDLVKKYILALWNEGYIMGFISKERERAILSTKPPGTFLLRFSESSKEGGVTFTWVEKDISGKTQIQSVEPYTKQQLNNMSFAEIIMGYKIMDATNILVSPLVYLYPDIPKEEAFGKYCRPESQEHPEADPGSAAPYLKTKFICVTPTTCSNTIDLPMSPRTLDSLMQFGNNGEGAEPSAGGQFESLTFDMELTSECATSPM
Protocol: HOS osteosarcoma cells were incubated with 500 nM double-stranded transcription factor decoy oligonucleotide S3, AS1411, the first PROTAC product 1411-S3-1, the second PROTAC product 1411-S3-2, or AS1411+double-stranded transcription factor decoy oligonucleotide S3. After 6 h, cell samples were collected for protein extraction and subsequent western blot assay.

MDM2 [3] = target: MDM2 (Homo sapiens, UniProt Q00987); assay: Biotin-oligonucleotide pull-down with recombinant proteins (MDM2); assay type: binding; parameters: purchased R&D Systems (MDM2); ACROBiosystems (NCL) E3-202-050 (MDM2); NUL-H5253 (NCL); details: 400 nM 5′-biotin label, 6 μg/mL NCL + 6 μg/mL MDM2
Sequence of MDM2 (Homo sapiens, UniProt Q00987) (P19338 whole entry partner): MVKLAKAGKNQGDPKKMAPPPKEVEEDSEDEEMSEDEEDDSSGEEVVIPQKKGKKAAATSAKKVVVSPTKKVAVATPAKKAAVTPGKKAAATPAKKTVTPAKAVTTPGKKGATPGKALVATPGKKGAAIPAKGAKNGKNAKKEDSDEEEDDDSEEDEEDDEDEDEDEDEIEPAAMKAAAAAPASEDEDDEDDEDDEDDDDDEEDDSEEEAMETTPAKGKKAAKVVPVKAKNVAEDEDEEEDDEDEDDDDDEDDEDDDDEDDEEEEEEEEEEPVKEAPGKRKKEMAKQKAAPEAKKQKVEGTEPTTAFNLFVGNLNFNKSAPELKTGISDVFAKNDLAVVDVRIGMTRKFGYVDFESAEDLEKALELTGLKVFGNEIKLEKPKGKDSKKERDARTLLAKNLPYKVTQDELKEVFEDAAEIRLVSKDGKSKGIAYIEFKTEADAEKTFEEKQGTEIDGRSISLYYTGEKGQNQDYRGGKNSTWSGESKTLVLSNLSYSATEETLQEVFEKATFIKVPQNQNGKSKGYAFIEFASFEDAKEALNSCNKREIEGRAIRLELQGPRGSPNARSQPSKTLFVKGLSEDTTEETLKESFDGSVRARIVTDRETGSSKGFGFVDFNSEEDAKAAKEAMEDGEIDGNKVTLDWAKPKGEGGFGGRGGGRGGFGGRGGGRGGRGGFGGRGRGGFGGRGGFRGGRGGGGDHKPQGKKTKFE
Sequence of MDM2 (Homo sapiens, UniProt Q00987) (Q00987 whole entry): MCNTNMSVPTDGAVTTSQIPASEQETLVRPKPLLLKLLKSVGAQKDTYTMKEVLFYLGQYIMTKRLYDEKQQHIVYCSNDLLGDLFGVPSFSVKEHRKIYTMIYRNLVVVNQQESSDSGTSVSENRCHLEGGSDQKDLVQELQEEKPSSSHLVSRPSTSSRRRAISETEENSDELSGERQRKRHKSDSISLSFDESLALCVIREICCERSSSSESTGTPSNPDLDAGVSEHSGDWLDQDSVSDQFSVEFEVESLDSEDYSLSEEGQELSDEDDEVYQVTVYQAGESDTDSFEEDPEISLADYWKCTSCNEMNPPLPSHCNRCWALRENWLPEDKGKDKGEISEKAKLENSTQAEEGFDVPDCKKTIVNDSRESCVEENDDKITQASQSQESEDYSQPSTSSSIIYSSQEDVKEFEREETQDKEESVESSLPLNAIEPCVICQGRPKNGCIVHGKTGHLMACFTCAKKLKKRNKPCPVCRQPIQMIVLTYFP
Protocol: 6 μg/mL recombinant human NCL and 6 μg/mL recombinant human MDM2 were mixed well and incubated at 4° C. for 7 h. Subsequently, 400 nM CRO, AS1411, or iSN04 labeled by biotin at the 5′ end was added, and the mixture was incubated at 4° C. for 6 h. Streptavidin agarose gel beads (purchased from cytiva, Cat. No.: 17511301) were added, and the mixture was further incubated at 4° C. overnight. The gel beads were washed 4 times with a TBST buffer, and an SDS-PAGE protein loading buffer (purchased from Beyotime, Cat. No.: P0015) was added. The mixture was heated to 100° C. and held for 10 min. After centrifugation, the supernatant was collected. The pull-down product was then detected by western blot assay.

NCL = NCL (Homo sapiens, UniProt P19338); assay: Biotin-oligonucleotide pull-down from HeLa cell lysate, western blot (NCL); assay type: binding; parameters: HeLa cervical cancer cells were lysed with an IP lysis solution; endogenous in cells; host or cells: HeLa cell lysate; details: 5′-biotin label, 0 nM-20 μM
Sequence of NCL (P19338 whole entry): as the sequence (P19338 whole entry partner) above
Protocol: HeLa cervical cancer cells were lysed with an IP lysis solution (purchased from Thermo Scientific, Cat. No.: 87788) and then incubated with a CRO (cytosine-rich oligonucleotide, negative control, SEQ ID NO: 13), AS1411, or iSN04 labeled by biotin at the 5′ end at different concentrations (0 nM, 200 nM, 500 nM, 1 μM, 5 μM, 10 μM, and 20 μM) at 4° C. for 6h. Subsequently, streptavidin agarose gel beads (purchased from cytiva, Cat. No.: 17511301) were added, and the mixture was further incubated at 4° C. overnight. After the bound biotin-labeled CRO, AS411, or iSN04 and its captured proteins on the gel beads were washed multiple times with an IP lysis buffer (purchased from Thermo Scientific, Cat. No.: 87788), an SDS-PAGE protein loading buffer (purchased from Beyotime, Cat. No.: P0015) was added, and the mixture was heated to 100° C. and held for 10 min. After centrifugation, the supernatant was collected as a pull-down product. The pull-down product was detected by western blot assay.

T1 sequence (Q00987 whole entry): as the sequence (Q00987 whole entry) above
T1 sequence (P19338 2-710 limits assumed): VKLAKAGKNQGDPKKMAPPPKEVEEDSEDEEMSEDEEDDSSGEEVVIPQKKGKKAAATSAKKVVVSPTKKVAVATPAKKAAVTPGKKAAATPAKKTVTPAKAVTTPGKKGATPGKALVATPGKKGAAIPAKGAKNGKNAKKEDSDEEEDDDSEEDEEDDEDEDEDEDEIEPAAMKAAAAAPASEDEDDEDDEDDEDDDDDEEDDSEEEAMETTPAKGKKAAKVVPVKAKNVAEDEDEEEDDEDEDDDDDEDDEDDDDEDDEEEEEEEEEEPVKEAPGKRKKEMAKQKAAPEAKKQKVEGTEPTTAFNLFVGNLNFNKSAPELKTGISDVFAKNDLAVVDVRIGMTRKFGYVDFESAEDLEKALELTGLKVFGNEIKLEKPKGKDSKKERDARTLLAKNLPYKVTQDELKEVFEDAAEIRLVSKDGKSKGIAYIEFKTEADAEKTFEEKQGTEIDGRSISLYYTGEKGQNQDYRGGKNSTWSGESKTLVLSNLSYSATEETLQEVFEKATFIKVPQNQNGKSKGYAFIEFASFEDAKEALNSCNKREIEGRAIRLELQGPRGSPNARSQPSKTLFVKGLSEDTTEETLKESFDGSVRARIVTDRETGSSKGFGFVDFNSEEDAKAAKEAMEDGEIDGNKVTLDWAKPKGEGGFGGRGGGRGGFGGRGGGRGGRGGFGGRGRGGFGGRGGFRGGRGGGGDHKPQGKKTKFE

In the case of “AS1411: DNA aptamer, GRO binding NCL, SEQ ID NO: 1: 5′-GGTGGTGGTGGTTGTGGTGGTGGTGG-3′”, the “protein level of MDM2” value (MDM2 [1]; A549, 200 nM, 3 h) is given as “neither AS1411, VH032, nor AS1411+VH032 can reduce the protein level of MDM2”, the “protein level of MDM2” value (MDM2 [1]; A549, 1000 nM, 12 h) is given as “neither AS1411 nor AS1411+AS1411 can reduce the protein level of MDM2” and the “safety in clinical trials” value [2] is given as “good safety”. The “protein level of STAT3” value (STAT3) was “only the first PROTAC product 1411-S3-1 and the second PROTAC product 1411-S3-2 can reduce the protein level of transcription factor STAT3”, the “binding / recruitment of MDM2” value (MDM2 [3]) was “recruits MDM2 in large amounts depending on its interaction with NCL” and the “capture of NCL” value (NCL) was “can capture NCL and MDM2 in a concentration-dependent manner”.
